The supplement of paper PMC11451515

Tested on: P12-Ichikawa
Experiment: cell viability relative to DMSO control; higher = less cytotoxic
Conditions: 48 h
Method in brief: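 Library compounds in DMSO were pin-dosed into 1536-well plates (5 μl) holding NOMO1 or SEM (500 cells/well) or P12-Ichikawa (1000 cells/well) leukemia cells, across an 11-point threefold series of 47 μM to 0.79 nM. Each cell line had been adapted for at least four passages in each medium. CellTiter-Glo One luminescence was read after 48 h at 37°C. Viability is the per-plate percentage relative to DMSO wells, with cell-free wells as background.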

[1] = HPLM + 10% dialyzed FBS, 0.000781 µM
[2] = HPLM + 10% dialyzed FBS, 0.00234 µM
[3] = HPLM + 10% dialyzed FBS, 0.00702 µM
[4] = HPLM + 10% dialyzed FBS, 0.0211 µM
[5] = HPLM + 10% dialyzed FBS, 0.0632 µM
[6] = HPLM + 10% dialyzed FBS, 0.19 µM
[7] = HPLM + 10% dialyzed FBS, 0.569 µM
[8] = HPLM + 10% dialyzed FBS, 1.71 µM
[9] = HPLM + 10% dialyzed FBS, 5.12 µM
[10] = HPLM + 10% dialyzed FBS, 15.4 µM
[11] = HPLM + 10% dialyzed FBS, 46.1 µM
[12] = RPMI 5 mM glucose + 10% FBS, 0.000781 µM
[13] = RPMI 5 mM glucose + 10% FBS, 0.00234 µM
[14] = RPMI 5 mM glucose + 10% FBS, 0.00702 µM
[15] = RPMI 5 mM glucose + 10% FBS, 0.0211 µM
[16] = RPMI 5 mM glucose + 10% FBS, 0.0632 µM
[17] = RPMI 5 mM glucose + 10% FBS, 0.19 µM
[18] = RPMI 5 mM glucose + 10% FBS, 0.569 µM
[19] = RPMI 5 mM glucose + 10% FBS, 1.71 µM
[20] = RPMI 5 mM glucose + 10% FBS, 5.12 µM
[21] = RPMI 5 mM glucose + 10% FBS, 15.4 µM
[22] = RPMI 5 mM glucose + 10% FBS, 46.1 µM
[23] = RPMI 5 mM glucose + 10% dialyzed FBS, 0.000781 µM
[24] = RPMI 5 mM glucose + 10% dialyzed FBS, 0.00234 µM
[25] = RPMI 5 mM glucose + 10% dialyzed FBS, 0.00702 µM
[26] = RPMI 5 mM glucose + 10% dialyzed FBS, 0.0211 µM
[27] = RPMI 5 mM glucose + 10% dialyzed FBS, 0.0632 µM
[28] = RPMI 5 mM glucose + 10% dialyzed FBS, 0.19 µM
[29] = RPMI 5 mM glucose + 10% dialyzed FBS, 0.569 µM
[30] = RPMI 5 mM glucose + 10% dialyzed FBS, 1.71 µM
[31] = RPMI 5 mM glucose + 10% dialyzed FBS, 5.12 µM
[32] = RPMI 5 mM glucose + 10% dialyzed FBS, 15.4 µM
[33] = RPMI 5 mM glucose + 10% dialyzed FBS, 46.1 µM

| SMILES | cell viability [1] | cell viability [2] | cell viability [3] | cell viability [4] | cell viability [5] | cell viability [6] | cell viability [7] | cell viability [8] | cell viability [9] | cell viability [10] | cell viability [11] | cell viability [12] | cell viability [13] | cell viability [14] | cell viability [15] | cell viability [16] | cell viability [17] | cell viability [18] | cell viability [19] | cell viability [20] | cell viability [21] | cell viability [22] | cell viability [23] | cell viability [24] | cell viability [25] | cell viability [26] | cell viability [27] | cell viability [28] | cell viability [29] | cell viability [30] | cell viability [31] | cell viability [32] | cell viability [33] |
| --- | --- | --- | --- | --- | --- | --- | --- | --- | --- | --- | --- | --- | --- | --- | --- | --- | --- | --- | --- | --- | --- | --- | --- | --- | --- | --- | --- | --- | --- | --- | --- | --- | --- |
| CC(C)OC(=O)/C1=C/N(CC(C)(C)C2=C1[NH]C3=CC=CC=C23)C(=O)C4=CC=C(F)C(=C4)F | 83.2% | 84.5% | 82.2% | 89.6% | 89.4% | 83.4% | 86.4% | 83.9% | 87.8% | 91.6% | 95.7% | 79% | 78.7% | 79% | 79% | 83.4% | 83.9% | 84.9% | 82.9% | 87.2% | 84.1% | 83.8% | 75.3% | 77.3% | 78.1% | 85.2% | 78.5% | 80.7% | 75.9% | 75.7% | 78.4% | 73.7% | 82.4% |
| C[S+](=O)([O-])Nc1ccc([N+](=O)[O-])cc1Oc1ccccc1 | 114% | 115% | 111% | 120% | 112% | 115% | 118% | 109% | 109% | 102% | 59.4% | 122% | 121% | 120% | 119% | 120% | 122% | 116% | 111% | 116% | 112% | 28.5% | 110% | 108% | 114% | 113% | 121% | 110% | 117% | 103% | 106% | 103% | 48.7% |
| CNCC(O)c1ccc(O)cc1 (stereo unspecified) | 103% | 106% | 113% | 113% | 124% | 122% | 118% | 118% | 120% | 119% | 120% | 99.8% | 116% | 114% | 121% | 124% | 127% | 122% | 129% | 123% | 131% | 107% | 99.4% | 110% | 115% | 119% | 114% | 113% | 118% | 113% | 123% | 121% | 114% |
| S=C(NCc1ccc2c(c1)OCO2)N1CCN(c2ncnc3c2oc2ccccc23)CC1 | 115% | 111% | 114% | 106% | 111% | 102% | 105% | 95.6% | 69.5% | 65.2% | 33.2% | 105% | 106% | 108% | 103% | 111% | 102% | 96.2% | 74.1% | 52.7% | 54% | 29.6% | 114% | 110% | 115% | 106% | 107% | 108% | 99% | 77.8% | 60.4% | 64.6% | 35.3% |
| c1ccc(CCCN2CCN(CCOC(c3ccccc3)c3ccccc3)CC2)cc1 | 89.2% | 90.8% | 104% | 95.5% | 99.2% | 91.3% | 89.7% | 87.5% | 91.6% | 77.3% | 67.3% | 91.4% | 97.1% | 94.4% | 94.5% | 93.9% | 94% | 98.2% | 90.2% | 92.3% | 78.4% | 55% | 83.7% | 88.3% | 88% | 91.4% | 94.1% | 85% | 94.7% | 87.1% | 88.5% | 75.2% | 38.3% |
| OC[C@@H](O)[C@@H](O)[C@H](O)[C@@H](O)CO | 106% | 110% | 107% | 108% | 127% | 127% | 112% | 112% | 124% | 114% | 122% | 116% | 115% | 122% | 123% | 136% | 126% | 132% | 141% | 130% | 135% | 139% | 109% | 109% | 120% | 109% | 123% | 123% | 117% | 120% | 126% | 118% | 127% |
| C[N]1C=C(C=N1)C2=C3\C=N/NC(=O)C4=C3C(=CC(=C4)NC(=O)[C@H](N)C5CCCCC5)[NH]2 | 103% | 103% | 99.7% | 100% | 99.7% | 103% | 94.5% | 81.1% | 65.5% | 45.1% | 12.3% | 98.4% | 101% | 99.1% | 99.9% | 97.3% | 98.5% | 92.7% | 85.3% | 61.7% | 21.8% | 7.78% | 96.2% | 98% | 95.2% | 90.5% | 94.7% | 102% | 85.4% | 79.6% | 58.8% | 18.4% | 11.5% |
